According to patent US20180208563A1, “THERMOD[…] CRYSTAL MODIFICATION OF 2-CHLORO-3-(METHYLSULFANYL)-N-(1-METHYL-1H-TETRAZOL-5-YL)-4-(TRIFLUOROMETHYL)BENZAMIDE” (BAYER CROPSCIENCE AKTIENGESELLSCHAFT, priority 2015, published 2018):

Legend:
[1] = Testing in practice of suspension formulations (crystal growth); assay type: physicochemical; settings: suspension formulations with finely ground solid benzamide; spontaneously or over a longer period
Description: The benzamide known for example from WO 2012/028579 A1 (example No. 4-638 in table 4 therein) has herbicidal properties and is suitable for the production of crop protection compositions which can be employed for weed control. However, it has been shown that the benzamide preparable according to the disclosure of WO 2012/028579 A1 is not suitable for the production of user-friendly administration forms. User-friendly administration forms are, for example, suspension formulations in which the benzamide is present finely ground in solid form. […] The crystal growth can occur spontaneously or over a longer period and cannot be predicted.

[2] = Stability tests: storage of an oil dispersion; assay type: physicochemical; settings: after several weeks of storage, compared to an oil dispersion of the benzamide prepared according to WO 2012/028579 A1

Structure (SMILES)	crystal growth, clumping and precipitation in suspension formulations [1]	signs of clumping and precipitation on storage [2]
CSc1c(C(F)(F)F)ccc(C(=O)Nc2nnnn2C)c1Cl [2-chloro-3-(methylsulfanyl)-N-(1-methyl-1H-tetrazol-5-yl)-4-(trifluoromethyl)benzamide]	crystal growth in suspension formulations and consequently to clumping and precipitation	–
CSc1c(C(F)(F)F)ccc(C(=O)Nc2nnnn2C)c1Cl [crystal modification II, 2-chloro-3-(methylsulfanyl)-N-(1-methyl-1H-tetrazol-5-yl)-4-(trifluoromethyl)benzamide]	–	no signs of clumping and precipitation
